Converted amounts (≈) assume the structure as drawn. Each block holds one compound with its values, some of them ahead of it.
How the values were obtained:
[1] = parameters: method as in doi:10.1016/j.molliq.2021.116535; conditions: cited from earlier work
[2] = Phase solubility study (shake-flask) in buffers with 2-HP-β-CD; conditions: for order of the solubility: compared with reported FCZ and L-173; for solubility at 3 days: thermodynamic from solid, solubility in pure buffer solution, pure buffer
Procedure: An excess amount of the substance was placed in the glass screw-capped vials with the solvent. The vials were stirred in an air thermostat for a certain period of time (a period of 3 days was estimated to be enough for reaching the equilibrium between the solid and the solvent). Then, the saturated solutions were kept in a thermostat in mild conditions no less than 12 h and thereafter centrifuged at a fixed temperature (Biofuge pico, Thermo Electron LED GmbH, Langenselbold, Germany) for 10 min at 12,000 rpm. […] The experimental results were reported as an average of at least three replicated experiments. Temperature uncertainty was ±0.1 K. The sensitivity of UV spectroscopic determinations was characterized by the values of the limit of detection (LOD)/limit of quantification (LOQ).

in vitro = in vitro ADME; conditions: pH 7.4, pH 7.4; CD 0.01087 M; 310.15 K; read-out: Permeability Coefficient (Papp)
Procedure: Permeability coefficients of RS-186 and R-98 were measured through the PermeaPad barrier (PHABIOC, Germany, Espelkamp, www.permeapad.com, accessed on 20 May 2021) of an effective surface area of 0.785 cm^2 in a vertical type of Franz diffusion cell (PermeGear, Inc., Hellertown, PA, USA) with 7 mL volume. PermeaPad is a biomimetic membrane proposed by di Cagno and Bauer-Brandl for the fast screening of the permeability of the marketed drugs and drug-like compounds. In brief, the barrier was mounted between the donor and receptor chambers. The donor chamber was filled with a stock solution of the investigated substance in buffer solution at pH 2.0 or pH 7.4 and was stirred vigorously during the permeability experiment. The receptor compartment contained 1 mL of the respective fresh buffer. The system was thermostated at 310.15 ± 0.1 K. A probe of 0.5 mL was withdrawn every 30 min from the receptor chamber and replaced with an equal amount of the respective fresh buffer. The permeation process followed the reverse dialysis. The withdrawn samples were analyzed in 96-well UV black plate (Costar) via spectrophotometer (Spectramax 190; Molecular devices, Molecular Devices Corporation, California, CA, USA) at the appropriate wavelength. The permeation profiles were plotted as the amount of the permeated drug over the surface area ( dQ/A ) versus the time ( t ). The flux ( J ) was calculated as a slope of permeation profiles according to the equation:(6) J=dQ/A×dt
The apparent permeability coefficient ( Papp ) was calculated by normalizing the flux measured over the concentration of the drug in the donor compartment ( C0 ), as described by the equation:(7) Papp=J/Co
Each permeability experiment was repeated at least 3 times and the average value of Papp was determined.

[3] = cited from earlier work

order of the solubility ([2]; pH 2.0): (FCZ) > (RS-186 ≥ R-98) > (L-173)
order of the solubility ([2]; pH 7.4): (FCZ) > (R-98 ≥ RS-186) >> (L-173)
Compound: OC(Cn1cncn1)(Cn1cncn1)c1ccc(F)cc1F [FCZ, fluconazole]
Papp (PermeaPad) [1]: 19 ×10⁻⁶ cm/s

Compound: O=C1S/C(=C\c2ccc(Cl)cc2)C(=O)N1CC(O)CN1CCN(CC(O)(Cn2cncn2)c2ccc(F)cc2F)CC1 (stereo not shown) [R-98, (Z)-5-(4-chlorobenzylidene)-3-(3-(4-(2-(2,4-difluorophenyl)-2-hydroxy-3-(1H-1,2,4-triazol-1-yl)propyl)piperazin-1-yl)-2-hydroxypropyl)thiazolidine-2,4-dione]
Papp (in vitro): 1.19 ×10⁻⁶ cm/s
solubility at 3 days ([2]; pH 2, aqueous buffer, pH 2.0): 620 µM (≈ 384 µg/mL)
solubility at 3 days ([2]; pH 7.4, aqueous buffer, pH 7.4): 18 µM (≈ 11.1 µg/mL)

order of the solubility ([2]; pH 2.0): (FCZ) > (RS-186 ≥ R-98) > (L-173)
order of the solubility ([2]; pH 7.4): (FCZ) > (R-98 ≥ RS-186) >> (L-173)
Compound: O=C(CN1C(=O)S/C(=C\c2ccc(Cl)cc2)C1=O)N1CCN(CC(O)(Cn2cncn2)c2ccc(F)cc2F)CC1 [L-173, (5Z)-5-[(4-chlorophenyl)methylidene]-3-(2-{4-[2-(2,4-difluorophenyl)-2-hydroxy-3-(1H-1,2,4-triazol-1-yl)propyl]piperazin-1-yl}-2-oxoethyl)-1,3-thiazolidine-2,4-dione, reference compound]

Compound: CC(C)NCC(O)COc1cccc2ccccc12.Cl (stereo not shown) [propranolol HCl]
greater solubility of racemic compound as compared to enantiomer [3]: 3.7 fold

Compound: CC(C)Cc1ccc(C(C)C(=O)O)cc1 (stereo not shown) [ibuprofen]
greater solubility of enantiomer against the racemate ([3]; pH 1.5): twice
